Test results: a melting point compilation (Tetko et al.; mined from patent text by program, amines drawn as free bases though some values may be those of a salt)

Compound | melting point [°C]
N#Cc1ccc(C(=O)C23CCCN2C(=O)N(c2cc(Cl)cc(Cl)c2)C3=O)cc1 (stereo not drawn) | 72.1
O=C(O)CN(C(=O)CCS)[C@H]1CC[C@H](c2ccccc2)CC1 | 125 to 130
COc1c(Cl)ccc(-c2nc(C(=O)OCc3ccc(Cl)cc3)c(Cl)c(N)c2F)c1F | 143
CNC(=O)N1CCN(C(=O)CN2CCCC2=O)CC1 | 203 to 205
CC(C)CCCOc1ccc2[nH]ncc2c1 | 124 to 126
CCCCCCCCC1(CCCCCCCC)c2cc([N+](=O)[O-])ccc2-c2ccc([N+](=O)[O-])cc21 | 69 to 73
O=C(O)CCc1ccc(OCc2cccc(-c3cncnc3)c2)cc1 | 166 to 167
CCOC(=O)c1c[nH]c2oc3ccccc3c(=O)c2c1=O | 174 to 175
CCn1cc(CC(=O)OC)c(O)n1 | 72 to 73
COc1ccc2c(c1)c(CC(=O)OCCNC(=O)c1cccnc1)c(C)n2C(=O)c1ccc(Cl)cc1 | 123 to 125
CCCCc1nc(=O)n2nc(-c3ccco3)cc2[nH]1 | 190
C=CCOc1ccc2oc(C(=O)c3ccc(F)cc3)c(C)c2c1 | 80 to 82
CCOCc1nc2c(N)nc3ccccc3c2n1CCCCC(=O)N1CCOCC1 | 128 to 129
CCOC(=O)CS(=O)(=O)C=C1SC=CS1 | 134 to 136
O=c1cc(-c2ccc(O)cc2)oc2ccncc12 | 306 to 308
CC(=O)N(C)c1cc(-c2ccnc3c(C(=O)c4cccs4)cnn23)ccc1F | 165 to 167
C[C@@H]1C(=O)C=CN2c3ccccc3CC[C@@H]12 (relative stereo) | 148 to 150
CCCc1c(OCCCCCOc2ccc(CCC(=O)O)cc2CCC(=O)O)ccc2c1OCCC2=O | 108 to 109
Oc1ccc(-c2nc3cc(O)c(Br)cc3o2)cc1F | 224 to 226
COc1cc2cc(CO)nc(-c3ccnc(-n4nc(-c5cccnc5)c5ccccc5c4=O)c3)c2cc1OC | > 250

Compound | melting point [°C]
COc1cc(NC(=O)Nc2ccccc2)c(O)c(OC)c1OC | 123 to 125
CCCCOC(=O)c1ccccc1C(=O)Nc1nc2ccccc2[nH]1 | 187
CN(C)c1nc(N)nc2c1ncn2C1C=CC(CO)C1 (stereo not drawn) | 173 to 174
CCC(C)(O)CCCCc1cccc(CCc2ccc(O)c(CO)c2)c1 (stereo not drawn) | 101 to 104
N#CCCNC(=O)c1cccc(-c2ccc3c(c2)C(Oc2cccc(C(F)(F)F)c2)CC3)c1 (stereo not drawn) | 120 to 121
CON=C(c1ccccc1O)n1ccnc1 | 104
Cc1ccsc1C(Cc1ccccc1N)N(C)C=O (stereo not drawn) | 111 to 112
COc1ccc(CN(C)C(=O)CCCc2ccc([N+](=O)[O-])cc2)cc1OC | 90
CC(C)n1nc(-c2sc(NC(=O)c3ccc(Cn4ccnc4)cc3)nc2-c2ccccc2)ccc1=O | > 250
CCc1ccccc1N(C=C(C#N)C#N)N=C(C#N)C#N | 172 to 174
COc1ccc2cnc(Nc3ccccc3)nc2c1C1CCCC1 | 187 to 188
CC(C)(C)OC(=O)Nc1cc(N2CCC(OCCOC3CCCCO3)CC2)c(-c2ccc(F)cc2)cc1N (racemic) | 56 to 58
CNS(=O)(=O)Cc1ccc2c(c1)c(CC#N)cn2Cc1ccccc1 | 133 to 135
Cc1cccc(C)c1N(C(=O)CN)C(=O)CCl | 135 to 137
CC(C)n1nc(-c2ccc(O)cc2)c2sccc2c1=O | 256 to 257
COc1cc(C(=O)CC(c2ccncc2)C(C)(C)[N+](=O)[O-])cc(OC)c1OC (stereo not drawn) | 214 to 216
Cc1cccc2c1c(C(=O)CC1CCCCCC1)cn2CCO | 98 to 104
O=C1CC(NC(=O)C2CCCN3C(=O)CCC(NC(=O)c4ccccc4)C(=O)N23)C(OC2CCCC2)O1 (stereo not drawn) | 172 to 180
Brc1cc(-c2ccccc2)cc(-c2ccccc2)c1 | 109
NC(=O)c1c(F)ccc(OCc2nc(-c3ccc(O)cc3)no2)c1F | 209 to 210

Compound | melting point [°C]
CC(C)(C)C1=CC(=Cc2cccc([N+](=O)[O-])c2)C=C(C(C)(C)C)C1=O | 118
CCOCc1nc2c(N)nc3cc(-c4ccccc4)ccc3c2n1CC1CCNCC1 | 142 to 143
COc1cc(N2CCC(N3CCCOCC3)CC2)ccc1Nc1ncc2ccc(-c3ccccc3OC)n2n1 | 75 to 82
Nc1cccnc1NCc1ccc(Cl)cc1 | 123 to 125
CC(=O)NCCNc1ccc(NCCNC(C)=O)c2c1C(=O)c1c(O)ccc(O)c1C2=O | 273 to 274
Cc1c(C)c2c(c(C)c1N)CC(C)(CN1CCC(Nc3ccccc3)CC1)O2 (stereo not drawn) | 116 to 118
COC(=O)c1c(Oc2cccc(C)c2C)nn(C(=O)OC)c1C | 115
CS(=O)(=O)c1ccc(-n2nc(C(F)(F)F)cc2-c2ccc(-c3ccco3)cc2)cc1C(F)(F)F | 159 to 160
CC(C)c1ccc(N2C(=O)CN(c3cccc(C(=O)O)c3)C2=O)cc1 | 249 to 252
Clc1ccc(NNc2ccc(Cl)cc2)cc1 | 120 to 121
CC1=NOC(c2c(S(C)(=O)=O)ccc(C(=O)O)c2Cl)C1 (stereo not drawn) | 175
CCOC(=O)C1=C(N)NC(N)=C(C(=O)OCC)C1c1cccc(C(F)(F)F)c1 | 170
CCC1(CC)OC(=O)N(CCC(C)(C)NC[C@H](O)c2ccc(O)c(NS(C)(=O)=O)c2)c2ccccc21 | 168
COc1cc(N)c(Cl)cc1C(=O)NCC1CCN(CCCCCC(=O)c2cn(C)c3ccccc23)CC1 | 125 to 127
COc1ccccc1CNc1ccc2cc(Nc3nc4cc(C)ccc4o3)ccc2n1 | 220
COc1c(C)c(C)c(OC)c(C(O)(c2cccnc2)C2CCCCC2)c1C (stereo not drawn) | 134 to 135
COc1c2c(nc3ccccc13)CCN(Cc1ccccc1)CC2 | < 20
O=C(O)Cc1cc(Cl)ccc1OCCCc1ccccc1 | 95 to 96.5
CC(=O)c1ccc(/C=C(\C)c2ccc3c(c2)C(C)(C)CCC3(C)C)cc1 | 148 to 149
O=C(N[C@H](Cc1ccc(C(F)(F)F)cc1)[C@@H](O)c1ccc(F)cc1)c1ccc(Oc2ccccc2)cc1 (racemic) | 186 to 187

Results, then the compound that gave them:

melting point [°C] | Compound
64 to 72 | CCOCc1cc(COc2cc(CC)nc(C)c2OC)ccc1-c1ccccc1S(=O)(=O)Nc1noc(C)c1C
152 to 154 | C=CCSc1cc(C(=O)O)cc(N)c1C(=O)c1ccccc1
206 to 207 | Nc1c2c(nc3ccccc13)CCc1cn(Cc3ccccc3)nc1-2
201 to 203 | CC(Cl)(Cl)C(NC(=O)c1cccs1)NC(=NC#N)Nc1ccc(Cl)nc1 (stereo not drawn)
133 to 140 | Oc1ccc2cc(COC=C3C4CC5CC(C4)CC3C5)ccc2c1
165 to 166 | O=C(Cc1ccc2[nH]cc(CCN3C(=O)c4ccccc4C3=O)c2c1)NCc1ccccc1
126 | C[Si](C)(C)CC1=C[C@@H](c2ccccc2)[C@H]2C(=O)OC(=O)[C@H]2C1 (racemic)
128 | CCc1ccc(-c2ccc(CCc3ccc(C(F)(F)F)cc3)cc2)cc1
168 to 169 | Cc1ccc(S(=O)(=O)Nc2ccccc2CCC(=O)c2cnc3sc(C)c(C)n23)cc1
82 to 84 | CCCCCCCCc1ccc(NC2=NCCS2)cc1
198 to 199 | O=C(COc1cccc2ccccc12)c1cc(O)c(O)c([N+](=O)[O-])c1
102 to 103 | COc1cc(C)c(O)c2ccccc12
171 to 172 | Cc1cc(OCC(O)CCl)c2cn[nH]c2c1 (stereo not drawn)
100 to 102 | CCCCCCOc1ccc2[nH]c(SC(C)(C(=O)O)c3ccccc3)cc2c1 (stereo not drawn)
88 to 90 | COc1ccc2ccc(C(=O)NCc3ccccc3)c(OC(C)C)c2c1
126 to 128 | COc1ccn2nc(SCc3ccccc3)nc2n1
128 to 130 | CCOC(=O)C(C#N)C1(C#N)C(=O)N(Cc2ccc(C)cc2)c2c(C)cccc21 (stereo not drawn)
193 to 194 | CN(C)c1nc(=O)n(-c2cc(OCc3ccccc3)c(Cl)cc2F)c(=O)n1C
129 to 131 | COc1ccc(N(CCC(=O)N(C)CC(=O)O)C(=O)c2ccc(Cl)cc2)cc1

melting point [°C] | Compound
263 to 266 | Clc1nc2cc(Br)c(Br)c(Br)c2[nH]1
124 to 125 | CN(C)C=Nc1nc(OS(=O)(=O)c2ccccc2)ncc1F
185 to 189 | O=C(NCc1ccccc1)c1cc(O)c(O)c([N+](=O)[O-])c1
160 to 162 | CN1C(=O)CC[C@]2(C)c3ccc(-c4ncccn4)cc3CC[C@@H]12
102 to 104 | CN1C(=O)CSc2c(NCc3cccc(OCc4ccc5ccccc5n4)c3)cccc21
197 to 198 | COc1ccc(C(=O)Nc2ccccc2)cc1NS(=O)(=O)c1ccc(C(F)(F)F)cc1
181 to 182 | CCCCn1c(=O)c2cn(S(=O)(=O)c3cc(Cl)c(Cl)s3)nc2n(CCCC)c1=O
109 to 110 | Cc1cc(Br)cnc1CCCn1nnc2cc(Cc3cccnc3)cnc21
120 to 121 | CSc1cccc2nc(SCCN3CCN(CC(=O)Nc4c(C(C)C)cccc4C(C)C)CC3)oc12
71 to 72 | CCCCC1COC(=S)N1 (stereo not drawn)
306 | CNc1nc(Nc2ccc(Cl)c(Cl)c2)ncc1NC(=O)Oc1ccccc1
228 to 229 | CCOc1cc(C)nc2nc(S(=O)(=O)Nc3c(Cl)ccc(C)c3Cl)nn12
190 to 191 | NC1CSC(c2ccsc2)CNC1=O (stereo not drawn)
177 | CCCCOC1(c2nc(-c3ccc(F)cc3)c(-c3ccncc3)[nH]2)CCN(C)CC1
52 to 53 | CCOC(=O)CCc1ccc(NC(C)=O)cc1
125 to 127 | Cc1ccc(S(=O)(=O)O[C@@H]2C[C@@H](C(=O)NC(C)(C)C)N(C(=O)OC(C)(C)C)C2)cc1
72 to 73 | CCCCOc1cc(C(=O)NCC#N)cc(Cl)n1
209 to 210 | COc1ccc(NC(=O)c2ccccc2)cc1Nc1ccccc1
129 to 130 | COC(=O)c1ccccc1-c1nc(COc2ccc(C=O)cc2OC)c(C)o1
